Measurements taken from patent EP4603477A1, “INHIBITORS OF THE CORONAVIRUS ACCESSORY PROTEIN ORF9B” (Consejo Superior De Investigaciones Científicas, priority 2024, dated 2025).
Like-named read-outs stand apart in the source and are kept apart here.

Legend:
[1] = physchem
[2] = test system: A549.ORF9b cells; assay: Fluorescence microscopy, co-localization of ORF9b and mitochondria; assay type: cell-based
[3] = test system: A549.ORF9b cells; assay type: cell-based
[4] = test system: A549.ORF9b; assay type: cell-based; details: A549.ORF9b cells; 10 ng/mL interferon-β1 4 h, inhibitor 1 µM 1 h
[5] = target: T1, Recombinant SARS-CoV-2 GST-ORF9b protein (Severe acute respiratory syndrome coronavirus 2, UniProt P0DTD2); assay: Surface plasmon resonance, ORF9b-ORF9b homotypic interaction; assay type: binding; details: mobile-phase GST-ORF9b pre-incubated with 5 µM compound
T1 construct: purchased BPS Bioscience
T1 sequence (P0DTD2 whole entry): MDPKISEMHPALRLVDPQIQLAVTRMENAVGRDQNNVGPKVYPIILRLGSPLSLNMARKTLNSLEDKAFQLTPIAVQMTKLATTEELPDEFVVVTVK

[6] = test system: THP-1. ORF9b cells; assay type: cell-based; details: 10 ng/mL interferon-β1 4 h, inhibitor 1 µM 1 h
[7] = test system: THP-1.ORF9b cells; assay type: cell-based
[8] = test system: A549wt cells; assay type: cell-based; details: both without and with LPS+ATP, MCC950 for the last 3 h
[9] = A549 lung epithelial cells, low micromolar concentrations (Fig. 9A)
[10] = THP-1 monocyte-macrophage cells, low micromolar concentrations (Fig. 9B)

For Nc1ccc(F)c(NC(=O)Cc2ccccc2)c1 [Compound 1], the logP [1] was 2.14, the “mitochondrial eviction of ORF9b” value ([2]; 2.5 µM, 4 h (Fig. 8)) was “causes mitochondrial eviction” and the “mitochondrial eviction of ORF9b” value ([2]; low micromolar concentrations) was “rapid and remarkable partial eviction”. For the same compound, the “inhibition of ORF9b-induced caspase-1 activation” value ([3]; A549.ORF9b cells) was “significantly inhibited”, the “inhibition of the activation of caspase-1 induced by ORF9b” value (“inhibition of the activation … by ORF9b” below) ([3]; A549.ORF9b cells, 5 µM, 3 h (Fig. 6)) was “inhibits” and the “restoration of IFN-β induced expression of OAS3 and ISG15 mitigated by ORF9b” value (“restoration” for short) [4] was “largely restored”. The “Binding of GST-ORF9b to immobilized GST-ORF9b” value [5] was “significantly inhibited”, the “restoration” value [6] was “largely restored” and the “inhibition of ORF9b-induced caspase-1 activation” value ([7]; THP-1.ORF9b cells) was “significantly inhibited”. For the same compound, the “inhibition of the activation … by ORF9b” value ([7]; THP-1.ORF9b cells, 5 µM, 3 h (Fig. 7)) was “inhibits”.

With CC(C)(O)c1coc(S(=O)(=O)NC(=O)Nc2c3c(cc4c2CCC4)CCC3)c1 [MCC950, reference compound] the “induction of caspase-1 activation by SARS-CoV-2 accessory proteins” value [8] was “abolished”.

With O=C(Cc1ccccc1)Nc1cc([N+](=O)[O-])ccc1F [Compound 9, N-(2-Fluoro-5-nitrophenyl)-2-phenylacetamide] the logP [1] was 2.85.

For Nc1ccc(F)c(NC(=O)c2cccc3ccccc23)c1 [Compound 2, N-(5-Amino-2-fluorophenyl)-1-naphthamide], the logP [1] was 3.19, the “mitochondrial eviction of ORF9b” value ([2]; 5 µM, 4 h (Fig. 11)) was “induce mitochondrial eviction” and the “mitochondrial eviction of ORF9b” value ([2]; low micromolar concentrations) was “capable of causing mitochondrial eviction”. The “inhibition of ORF9b-induced caspase-1 activation” value ([3]; A549.ORF9b cells) was “inhibited”, the “inhibition of the activation … by ORF9b” value [3, 9] was “inhibit” and the “restoration” value [4] was “largely restored”. For the same compound, the “restoration” value [6] was “largely restored”, the “inhibition of ORF9b-induced caspase-1 activation” value ([7]; THP-1.ORF9b cells) was “inhibited” and the “inhibition of the activation … by ORF9b” value [7, 10] was “inhibit”.

In the case of COc1ccc(CC(=O)Nc2cc(N)ccc2F)cc1 [Compound 4, N-(5-Amino-2-fluorophenyl)-2-(4-methoxyphenyl)acetamide], the logP [1] is reported as 2.01, the “inhibition of ORF9b-induced caspase-1 activation” value ([3]; A549.ORF9b cells) is reported as “inhibited” and the “inhibition of the activation … by ORF9b” value [3, 9] is reported as “inhibit”. The “inhibition of ORF9b-induced caspase-1 activation” value ([7]; THP-1.ORF9b cells) was “inhibited” and the “inhibition of the activation … by ORF9b” value [7, 10] was “inhibit”.

In the case of Cc1ccc(N)c(NC(=O)Cc2ccc(F)cc2)c1 [Compound 3, N-(2-Amino-5-methylphenyl)-2-(4-fluorophenyl)acetamide], the logP [1] is reported as 2.63, the “mitochondrial eviction of ORF9b” value ([2]; low micromolar concentrations) is reported as “did not cause mitochondrial eviction” and the “inhibition of ORF9b-induced caspase-1 activation” value ([3]; A549.ORF9b cells) is reported as “much lower or no”. For the same compound, the “inhibition of ORF9b-induced caspase-1 activation” value ([7]; THP-1.ORF9b cells) was “much lower or no”.

With Cc1ccc([N+](=O)[O-])c(NC(=O)Cc2ccc(F)cc2)c1 [Compound 8, N-(2-Nitro-5-methylphenyl)-2-(4-fluorophenyl)acetamide] the logP [1] was 3.27, the “mitochondrial eviction of ORF9b” value ([2]; low micromolar concentrations) was “did not cause mitochondrial eviction” and the “inhibition of ORF9b-induced caspase-1 activation” value ([3]; A549.ORF9b cells) was “much lower or no”. For the same compound, the “inhibition of ORF9b-induced caspase-1 activation” value ([7]; THP-1.ORF9b cells) was “much lower or no”.

With O=C(Cc1ccc(Cl)cc1)Nc1cc([N+](=O)[O-])ccc1F [Compound 6, 2-(4-Chlorophenyl)-N-(2-fluoro-5-nitrophenyl)acetamide] the logP [1] was 3.47, the “mitochondrial eviction of ORF9b” value ([2]; 5 µM, 4 h (Fig. 11)) was “induce mitochondrial eviction” and the “mitochondrial eviction of ORF9b” value ([2]; low micromolar concentrations) was “capable of causing mitochondrial eviction”. The “inhibition of ORF9b-induced caspase-1 activation” value ([3]; A549.ORF9b cells) was “inhibited”, the “inhibition of the activation … by ORF9b” value [3, 9] was “inhibit” and the “restoration” value [4] was “largely restored”. The “restoration” value [6] was “largely restored”, the “inhibition of ORF9b-induced caspase-1 activation” value ([7]; THP-1.ORF9b cells) was “inhibited” and the “inhibition of the activation … by ORF9b” value [7, 10] was “inhibit”.

In the case of Nc1ccc(F)c(NC(=O)Cc2ccc(Cl)cc2)c1 [Compound 5, N-(5-Amino-2-fluorophenyl)-2-(4-chlorophenyl)acetamide], the logP [1] is reported as 2.7, the “inhibition of ORF9b-induced caspase-1 activation” value ([3]; A549.ORF9b cells) is reported as “inhibited” and the “inhibition of the activation … by ORF9b” value [3, 9] is reported as “inhibit”. For the same compound, the “inhibition of ORF9b-induced caspase-1 activation” value ([7]; THP-1.ORF9b cells) was “inhibited” and the “inhibition of the activation … by ORF9b” value [7, 10] was “inhibit”.

For COc1ccc(CC(=O)Nc2cc([N+](=O)[O-])ccc2F)cc1 [Compound 7, N-(2-Fluoro-5-nitrophenyl)-2-(4-methoxyphenyl)acetamide], the logP [1] was 2.98, the “inhibition of ORF9b-induced caspase-1 activation” value ([3]; A549.ORF9b cells) was “inhibited” and the “inhibition of the activation … by ORF9b” value [3, 9] was “inhibit”. The “inhibition of ORF9b-induced caspase-1 activation” value ([7]; THP-1.ORF9b cells) was “inhibited” and the “inhibition of the activation … by ORF9b” value [7, 10] was “inhibit”.
